Counter-ions that a name gives are not always drawn.

The source of these data is patent publication US4001237A, “Oxazole, isoxazole, thiazole and isothiazole amides” (priority 1976, dated 1977).

The subject of assay [1] is α-adrenergic receptor. The experiment in a line: Anesthetized dog assay for α-adrenergic blocking agents: inhibition of norepinephrine induced pressor responses. The format is in vivo. To be noted: relative to prazosin; test drug 3 mg./kg. iv; norepinephrine dose raising blood pressure by 50 mm. of Hg; anesthetized dogs. As to the method: (§1) In the following table, antihypertensive acitvity was determined by oral administration to spontaneous hypertensive rats, and the in vitro and in vivo α-adrenergic receptor blocking effect was determined by tests described following the table. In the in vitro test, the inhibition by the test drug of norepinephrine induced contractions of rat seminal vesicles was measured; and in the in vivo test, the inhibition by the test drug of norepinephrine induced pressor responses in anesthetized dogs was measured.
Thus, blood pressure responses to norepinephrine (NE) in anesthetized dogs was used as a comparative assay for α-adrenergic receptor blocking properties of drugs.
Experiments were done on mongrel dogs anesthetized with sodium pentobarbital, 30 mg./kg. iv. The left femoral artery was cannulated to record aortic blood pressure and a femoral vein was cannulated for administration of drugs. All animals underwent a bilateral vagotomy. A norepinephrine dose-response curve was obtained by administering increasing doses of iv norepinephrine (0.01 - 1 μg./kg.). The test drug was then administered iv at 3 mg./kg. Approximately 30 minutes later a dose-response curve was again established for iv norepinephrine (0.01-10 μg./kg.).

For assay [2], the system named is spontaneous hypertensive rats. The assay can be described thus: Antihypertensive activity by oral administration to spontaneous hypertensive rats. In kind it is in vivo, rat. To be noted: Rattus norvegicus, oral, spontaneous hypertensive rats, read-out: Antihypertensive Activity % Blood Pressure Change. The procedure:
as §1

Assay [3] addresses T1, α-adrenergic receptor (Rattus norvegicus, UniProt P43140).
T1 construct: Seminal vesicles were removed and transfered to a shallow dish containing modified Tyrode's solution; from tissue; host or cells: isolated seminal vesicle of male Long Evans rats
T1 sequence (P43140 1-466): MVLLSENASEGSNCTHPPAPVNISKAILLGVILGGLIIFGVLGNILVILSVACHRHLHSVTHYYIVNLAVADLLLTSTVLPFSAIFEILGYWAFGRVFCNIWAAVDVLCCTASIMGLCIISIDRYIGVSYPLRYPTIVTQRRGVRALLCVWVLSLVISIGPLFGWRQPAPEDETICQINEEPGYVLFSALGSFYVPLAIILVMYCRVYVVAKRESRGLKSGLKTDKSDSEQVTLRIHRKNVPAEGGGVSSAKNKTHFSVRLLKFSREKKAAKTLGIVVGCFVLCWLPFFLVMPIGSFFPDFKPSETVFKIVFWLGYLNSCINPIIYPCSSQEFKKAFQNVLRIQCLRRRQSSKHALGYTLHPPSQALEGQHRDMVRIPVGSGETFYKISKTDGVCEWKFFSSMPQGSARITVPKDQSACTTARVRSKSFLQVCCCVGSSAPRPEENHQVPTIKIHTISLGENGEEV
The assay can be described thus: Isolated rat seminal vesicle assay: inhibition of norepinephrine induced contractions. The format is cell-based. To be noted: relative to prazosin; test compound 10 nanograms/ml; shift of norepinephrine ED50, rat seminal vesicle. The procedure: as §1
Dangan et al., Int. j. […] Lietch et al., Brit.
Male Long Evans rats weighing approximately 300 g. were sacrificed by a sharp blow on the head. Seminal vesicles were removed and transfered to a shallow dish containing modified Tyrode's solution. The vesicles were emptied of their contents by squeezing them gently with a pair of forceps. Silk thread (4-0) was attached to both ends of the vesicle and it was suspended in a 20 ml. muscle chamber containing modified oxygenated Tyrode's solution (g./liter: NaCl 8, KCl 0.2, CaCl2 0.26, NaHCO3 1, Na2 HPO4 0.575, glucose 0.5 and MgCl2 0.02). The bathing fluid was maintained at 37° C. with a thermostatically controlled isolated organ tissue bath. Contractions were recorded isometrically by means of a force displacement transducer and recordings were made with a Beckman RP Dynograph. Norepinephrine (NE) was added to the muscle chamber in volumes ranging from 0.1 to 0.4 ml. with a 1 ml. syringe attached to a 3 inch 20 gauge needle. NE and test compounds were dissolved in deionized water.
NE dose response curves were obtained alone and in the presence of test compounds. NE was allowed to remain in contact with the strip until a maximal contraction was obtained. The strip was then washed with the perfusion fluid for 15-30 seconds and the preparation was allowed to return to base line before a subsequent dose of NE was given. Increasing amounts of NE were injected into the bath in the same manner until a complete dose response was obtained.
The seminal vesicles used to obtain the control NE dose response were discarded and new preparations were placed in the tissue bath for evaluation of the test compound. The test compound was added directly to the perfusion fluid (10 nanograms/ml.) and the strips were allowed to remain in contact with the bathing media for at least 10 minutes before the NE dose response was determined. Seminal vesicles from the same rat were used for control and for test drug.
ED50 values for NE were obtained by regression analysis as described by Finney, Probit, Analysis, 2d Ed., Cambridge (1964). A minimum of 4 strips and at least 4 doses were employed to calculate the regression lines. The ED50 value is defined as the concentration of NE which produces a contraction equal to 50% of the maximal contraction.

Assay [4] is described as follows: Clinical use as antihypertensive agent in humans (literature reports). The format is in vivo, human. As to conditions: clinical daily dose ranges 150 to 500 mg. versus 1.5 to 15 mg.

For `COc1cc2nc(N3CCN(C(=O)c4cocn4)CC3)nc(N)c2cc1OC.Cl` [Example 7, 4-Amino-6,7-dimethoxy-2-[4-(oxazole-4-carbonyl)piperazin-1-yl]quinazoline Hydrochloride], the “α-Adrenergic Receptor Blocking Effect In Vivo Activity Ratio” value with α-adrenergic receptor [1] is 1.22. Moreover, in assay [2], the change in vivo at 1 mg/kg was -15%, the change in vivo at 3 mg/kg was -29% and the change in vivo at 10 mg/kg was -45%. In addition, at α-adrenergic receptor [3], the “α-Adrenergic Receptor Blocking Effect In Vitro Activity Ratio” value is 0.6.
On the same counts, the results for `COc1cc2nc(N3CCN(C(=O)c4cnc(C)s4)CC3)nc(N)c2cc1OC` [Example 15, 4-Amino-6,7-dimethyoxy-2-[4-(2-methylthiazole-5-carbonyl)piperazin-1-yl]quinazoline Hydrochloride] are 0.09, -20%, -25%, -37% and 0.19.
For the compound `COc1cc2c(N)nc(N3CCN(C(=O)OCC(C)(C)O)CC3)nc2c(OC)c1OC` [Trimazosin], the “weaker than prazosin at the lower end of the clinical daily dosage range” value in assay [4] turned out to be 100 fold.
